From patent US20090042910A1, “QUINOLINE DERIVATIVES FOR TREATING CANCER” (priority 2006, published 2009) come the findings set out here.

For one assay, the target named is T1, KDR (VEGFR2) (Homo sapiens, UniProt P35968).
T1 construct: phosphorylation of KDR expressed in human umbilical vein endothelial cells (HUVECs); host or cells: HUVECs (primary human umbilical vein endothelial cells)
Description: In vitro phospho-KDR ELISA assay in HUVECs (Test c). The assay is classed as cell-based. The conditions noted are these: HUVECs stimulated with VEGF, read-out: IC50 versus phospho-tyrosine formation in KDR. The method, then:
This assay uses a conventional ELISA method to determine the ability of test compounds to inhibit phosphorylation of tyrosine in KDR (VEGFR2).
Human umbilical vein endothelial cells (HUVECs; PromoCell) were routinely incubated at 37° C. with 7.5% CO2 in ‘growth medium’ comprising MCDB 131 (Gibco Catalogue No. 10372-019; 500 ml) containing L-glutamine (Sigma Catalogue No. G3126; 0.848 g), 1% Penicillin Streptomycin (Gibco Catalogue No. 15140-122) and Fetal Bovine Serum (PAA Laboratories Catalogue No. A15-043; 50 ml).
For the assay, the cells were detached from the culture flask using a trypsin/ethylenediaminetetraacetic acid (EDTA) mixture (Invitrogen Ltd.; Catalogue No. 15400-054) and resuspended in ‘test medium’ comprising MCDB 131 (500 ml) containing L-glutamine (0.848 g), 1% Penicillin Streptomycin and Fetal Bovine Serum (10 ml). Aliquots (1 ml) were seeded into each well of a 24 well tissue culture plate (Corning Life Sciences; Catalogue No. 3527) to give a density of approximately 3.5×10^4 cells per well. The cells were incubated overnight at 37° C. with 7.5% CO2 to allow adherence to the well surface. The following morning the assay medium was decanted and an aliquot (0.5 ml) of ‘serum free medium’ comprising MCDB 131 (500 ml) containing L-glutamine (0.848 g) and 1% Penicillin Streptomycin was added to each well. The plates were incubated at 37° C. for 2.5 hours. […]
For orientation: In an ELISA, binding on a coated surface is turned into a signal by an enzyme label.

For another assay, the target named is T2, PDGFRβ (Homo sapiens, UniProt P09619).
T2 construct: endogenous in cells; host or cells: MG63 osteosarcoma cells (ATCC)
T2 sequence (P09619 33-1106): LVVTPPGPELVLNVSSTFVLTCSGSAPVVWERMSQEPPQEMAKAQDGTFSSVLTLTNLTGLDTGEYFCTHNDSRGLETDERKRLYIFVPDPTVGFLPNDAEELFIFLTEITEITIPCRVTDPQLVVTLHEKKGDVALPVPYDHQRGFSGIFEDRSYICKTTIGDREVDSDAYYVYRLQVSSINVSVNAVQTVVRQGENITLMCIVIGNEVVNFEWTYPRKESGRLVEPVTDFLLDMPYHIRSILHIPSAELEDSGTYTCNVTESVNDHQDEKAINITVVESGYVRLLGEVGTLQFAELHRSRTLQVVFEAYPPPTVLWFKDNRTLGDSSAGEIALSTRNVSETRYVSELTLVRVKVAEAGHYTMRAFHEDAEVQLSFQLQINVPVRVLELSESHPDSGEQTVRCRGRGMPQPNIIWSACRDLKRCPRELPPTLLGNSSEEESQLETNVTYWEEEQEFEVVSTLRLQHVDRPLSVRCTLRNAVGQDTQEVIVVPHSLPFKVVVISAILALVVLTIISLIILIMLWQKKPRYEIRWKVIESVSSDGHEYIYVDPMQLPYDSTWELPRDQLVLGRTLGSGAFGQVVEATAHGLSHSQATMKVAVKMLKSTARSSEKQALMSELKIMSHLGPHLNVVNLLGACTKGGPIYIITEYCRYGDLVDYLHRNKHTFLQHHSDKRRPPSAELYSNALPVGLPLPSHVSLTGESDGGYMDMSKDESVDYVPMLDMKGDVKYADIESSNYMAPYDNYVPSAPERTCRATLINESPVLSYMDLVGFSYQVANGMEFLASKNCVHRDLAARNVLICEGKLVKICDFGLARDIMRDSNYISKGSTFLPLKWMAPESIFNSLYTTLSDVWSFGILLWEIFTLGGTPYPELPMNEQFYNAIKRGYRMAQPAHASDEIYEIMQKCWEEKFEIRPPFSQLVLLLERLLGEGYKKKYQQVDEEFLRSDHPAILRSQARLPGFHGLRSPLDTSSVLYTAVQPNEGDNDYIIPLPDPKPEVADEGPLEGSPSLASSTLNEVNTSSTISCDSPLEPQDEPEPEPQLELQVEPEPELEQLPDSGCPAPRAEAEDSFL
In words: In vitro phospho-Tyr751 PDGFRβ ELISA assay in MG63 osteosarcoma cells (Test b). The assay is classed as cell-based. The conditions noted are these: MG63 cells stimulated with PDGFBB, read-out: IC50 versus phospho-Tyr751 formation in PDGFRβ. The method, then: This assay uses a conventional ELISA method to determine the ability of test compounds to inhibit phosphorylation of tyrosine in PDGFRβ.
An MG63 osteosarcoma cell line [American Type Culture Collection (ATCC) CCL 1427] was routinely maintained at 37° C. with 7.5% CO2 in Dulbecco's modified Eagle's growth medium (DMEM; Sigma-Aldrich; Catalogue No. D6546) containing 10% foetal calf serum (FCS; Sigma-Aldrich; Catalogue No. F7524) and 2 mM L-glutamine (Invitrogen Ltd., Paisley, UK; Catalogue No. 25030-024).
For the assay, the cells were detached from the culture flask using a trypsin/ethylenediaminetetraacetic acid (EDTA) mixture (Invitrogen Ltd.; Catalogue No. 15400-054) and resuspended in a test medium comprising DMEM without phenol red (Sigma-Aldrich; Catalogue No. D5921) containing 1% charcoal-stripped foetal calf serum (FCS) (Sigma-Aldrich; Catalogue No. F7524, stripped by incubation with dextran-coated activated charcoal at 55° C. for 30 minutes with continuous stirring followed by removal of the charcoal by centrifugation and filter sterilisation) and 2 mM L-glutamine (Invitrogen Ltd., Catalogue No. 25030-024) to give 6×10^4 cells per ml. […]

T1 sequence (P35968 20-1356): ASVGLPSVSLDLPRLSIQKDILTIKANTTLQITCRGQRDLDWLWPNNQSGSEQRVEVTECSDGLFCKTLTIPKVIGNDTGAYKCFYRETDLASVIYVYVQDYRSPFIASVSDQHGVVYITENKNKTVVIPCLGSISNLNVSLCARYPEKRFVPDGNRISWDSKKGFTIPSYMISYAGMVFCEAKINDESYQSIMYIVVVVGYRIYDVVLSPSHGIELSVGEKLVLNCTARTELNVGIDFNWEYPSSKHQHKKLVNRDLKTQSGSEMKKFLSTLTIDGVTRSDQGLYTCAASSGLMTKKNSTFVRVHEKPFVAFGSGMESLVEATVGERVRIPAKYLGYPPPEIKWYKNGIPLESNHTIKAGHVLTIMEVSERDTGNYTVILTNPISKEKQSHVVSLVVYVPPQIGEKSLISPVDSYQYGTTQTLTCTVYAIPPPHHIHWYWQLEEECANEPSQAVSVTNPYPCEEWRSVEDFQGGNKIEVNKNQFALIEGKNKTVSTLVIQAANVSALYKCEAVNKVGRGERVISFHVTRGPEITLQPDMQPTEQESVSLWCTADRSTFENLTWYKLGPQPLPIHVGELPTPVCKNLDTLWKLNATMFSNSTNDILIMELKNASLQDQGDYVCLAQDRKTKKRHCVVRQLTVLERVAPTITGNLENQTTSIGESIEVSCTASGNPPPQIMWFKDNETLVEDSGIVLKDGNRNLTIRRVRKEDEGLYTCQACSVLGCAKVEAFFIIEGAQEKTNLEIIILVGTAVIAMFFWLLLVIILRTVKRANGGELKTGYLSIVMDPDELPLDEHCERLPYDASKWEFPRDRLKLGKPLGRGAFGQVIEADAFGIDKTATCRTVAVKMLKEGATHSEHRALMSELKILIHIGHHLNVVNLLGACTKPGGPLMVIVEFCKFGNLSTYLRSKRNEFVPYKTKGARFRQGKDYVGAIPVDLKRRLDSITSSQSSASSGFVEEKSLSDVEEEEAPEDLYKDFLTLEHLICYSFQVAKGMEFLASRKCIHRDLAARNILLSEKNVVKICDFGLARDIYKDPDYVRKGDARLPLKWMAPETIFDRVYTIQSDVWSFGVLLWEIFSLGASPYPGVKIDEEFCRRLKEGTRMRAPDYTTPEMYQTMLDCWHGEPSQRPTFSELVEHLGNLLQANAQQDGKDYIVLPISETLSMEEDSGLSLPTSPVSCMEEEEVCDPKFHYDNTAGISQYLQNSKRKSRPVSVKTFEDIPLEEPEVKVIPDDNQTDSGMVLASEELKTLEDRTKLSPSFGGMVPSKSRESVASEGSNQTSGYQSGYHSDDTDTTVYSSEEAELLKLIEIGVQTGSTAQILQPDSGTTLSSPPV

For orientation: IC50 means the concentration at which inhibition is half-maximal. With `CCn1cc(NC(=O)Cc2ncc(Oc3ccnc4cc(OC)c(OC)cc34)cn2)cn1` [Example 1, N-(1-ethylpyrazol-4-yl)-2-[5-(6,7-dimethoxyquinolin-4-yloxy)pyrimidin-2-yl]acetamide], the half-inhibitory concentration (IC50) was around 1000 nM on KDR (VEGFR2) and around 7 nM at PDGFRβ.

For `CCc1cc(NC(=O)Cc2ncc(Oc3ccnc4cc(OC)c(OC)cc34)cn2)n[nH]1` [N-(5-ethyl-1H-pyrazol-3-yl)-2-[5-(6,7-dimethoxyquinolin-4-yloxy)pyrimidin-2-yl]acetamide], the IC50 at KDR (VEGFR2) was around 700 nM; at PDGFRβ, around 6 nM.
